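Each compound was tested at five concentrations against cells in 96-well plates for 48 hours. At the GI50, growth is halved.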 Active and inactive are the calls of the source. Rule as the data show it: active = GI50 up to about 1.1 µM and inactive = higher.
Tests used:
Assay in all cases: NCI tumour cell line growth inhibition, 48 h
SW-620 = tested on: SW-620
SNB-75 = tested on: SNB-75
XF498 = tested on: XF498
UACC-257 = tested on: UACC-257
SK-MEL-2 = tested on: SK-MEL-2
SF-539 = tested on: SF-539
CCRF-CEM = tested on: CCRF-CEM
NCI-H522 = tested on: NCI-H522
HCT-116 = tested on: HCT-116
SNB-19 = tested on: SNB-19
KM-20L2 = tested on: KM-20L2
ACHN = tested on: ACHN
LOX IMVI = tested on: LOX IMVI
K562 = tested on: K562
RPMI-8226 = tested on: RPMI-8226
SF-268 = tested on: SF-268
COLO 205 = tested on: COLO 205
M19-MEL = tested on: M19-MEL
HOP-92 = tested on: HOP-92
Malme-3M = tested on: Malme-3M
NCI-H23 = tested on: NCI-H23
SF-295 = tested on: SF-295
UO-31 = tested on: UO-31
OVCAR-4 = tested on: OVCAR-4
SR = tested on: SR
SN12C = tested on: SN12C
SK-MEL-28 = tested on: SK-MEL-28
A498 = tested on: A498
MOLT-4 = tested on: MOLT-4
IGROV-1 = tested on: IGROV-1
HT-29 = tested on: HT-29
NCI-H460 = tested on: NCI-H460
HOP-18 = tested on: HOP-18
A549 = tested on: A549
SK-MEL-5 = tested on: SK-MEL-5
DLD-1 = tested on: DLD-1
DMS-273 = tested on: DMS-273
EKVX = tested on: EKVX
KM12 = tested on: KM12
HOP-62 = tested on: HOP-62
CAKI-1 = tested on: CAKI-1
DMS-114 = tested on: DMS-114
HL-60 = tested on: HL-60
M14 = tested on: M14
UACC-62 = tested on: UACC-62
OVCAR-5 = tested on: OVCAR-5
LXFL 529 = tested on: LXFL 529
OVCAR-8 = tested on: OVCAR-8
786-0 = tested on: 786-0
NCI-H226 = tested on: NCI-H226
OVCAR-3 = tested on: OVCAR-3
SK-OV-3 = tested on: SK-OV-3
U-251 = tested on: U-251
RXF 393 = tested on: RXF 393
HCT-15 = tested on: HCT-15
TK-10 = tested on: TK-10
RXF 631 = tested on: RXF 631
HCC 2998 = tested on: HCC 2998
SNB-78 = tested on: SNB-78

CC[C@]1(O)C(=O)OCc2c1cc1n(c2=O)Cc2cc3c(N)cccc3nc2-1
GI50 (SW-620): > 100 µM (inactive)
GI50 (SNB-75): 20.5 µM (inactive)
GI50 (XF498): > 100 µM (inactive)
GI50 (UACC-257): > 100 µM (inactive)
GI50 (SK-MEL-2): > 100 µM (inactive)
GI50 (SF-539): > 100 µM (inactive)
GI50 (CCRF-CEM): > 100 µM (inactive)
GI50 (NCI-H522): > 100 µM (inactive)
GI50 (HCT-116): > 100 µM (inactive)
GI50 (SNB-19): > 100 µM (inactive)
GI50 (KM-20L2): > 100 µM (inactive)
GI50 (ACHN): > 100 µM (inactive)
GI50 (LOX IMVI): > 100 µM (inactive)
GI50 (K562): > 100 µM (inactive)
GI50 (RPMI-8226): > 100 µM (inactive)
GI50 (SF-268): > 100 µM (inactive)
GI50 (COLO 205): > 100 µM (inactive)
GI50 (M19-MEL): > 100 µM (inactive)
GI50 (HOP-92): > 100 µM (inactive)
GI50 (Malme-3M): > 100 µM (inactive)
GI50 (NCI-H23): > 100 µM (inactive)
GI50 (SF-295): > 100 µM (inactive)
GI50 (UO-31): > 100 µM (inactive)
GI50 (OVCAR-4): > 100 µM (inactive)
GI50 (SR): > 100 µM (inactive)
GI50 (SN12C): > 100 µM (inactive)
GI50 (SK-MEL-28): > 100 µM (inactive)
GI50 (A498): > 100 µM (inactive)
GI50 (MOLT-4): > 100 µM (inactive)
GI50 (IGROV-1): > 100 µM (inactive)
GI50 (HT-29): > 100 µM (inactive)
GI50 (NCI-H460): > 100 µM (inactive)
GI50 (HOP-18): > 100 µM (inactive)
GI50 (A549): > 100 µM (inactive)
GI50 (SK-MEL-5): > 100 µM (inactive)
GI50 (DLD-1): > 100 µM (inactive)
GI50 (DMS-273): > 100 µM (inactive)
GI50 (EKVX): > 100 µM (inactive)
GI50 (KM12): > 100 µM (inactive)
GI50 (HOP-62): > 100 µM (inactive)
GI50 (CAKI-1): > 100 µM (inactive)
GI50 (DMS-114): > 100 µM (inactive)
GI50 (HL-60): > 100 µM (inactive)
GI50 (M14): > 100 µM (inactive)
GI50 (UACC-62): > 100 µM (inactive)
GI50 (OVCAR-5): > 100 µM (inactive)
GI50 (LXFL 529): > 100 µM (inactive)
GI50 (OVCAR-8): > 100 µM (inactive)
GI50 (786-0): > 100 µM (inactive)
GI50 (NCI-H226): > 100 µM (inactive)
GI50 (OVCAR-3): > 100 µM (inactive)
GI50 (SK-OV-3): > 100 µM (inactive)
GI50 (U-251): > 100 µM (inactive)
GI50 (RXF 393): > 100 µM (inactive)
GI50 (HCT-15): > 100 µM
GI50 (TK-10): > 100 µM (inactive)
GI50 (RXF 631): > 100 µM (inactive)
GI50 (HCC 2998): > 100 µM (inactive)

CN(C)c1ccc(C2CC(=O)C(C#N)=C(c3ccccc3)NN2C)cc1 (centres undefined)
GI50 (SW-620): 3.97 µM (inactive)
GI50 (SNB-75): 2.05 µM (inactive)
GI50 (XF498): 4.55 µM (inactive)
GI50 (UACC-257): 6.76 µM (inactive)
GI50 (SK-MEL-2): 6.05 µM (inactive)
GI50 (NCI-H522): 3.56 µM (inactive)
GI50 (HCT-116): 11.5 µM (inactive)
GI50 (SNB-19): 12.1 µM (inactive)
GI50 (ACHN): 11.4 µM (inactive)
GI50 (LOX IMVI): 4.93 µM (inactive)
GI50 (RPMI-8226): 13.9 µM (inactive)
GI50 (SF-268): 17.2 µM (inactive)
GI50 (HOP-92): 21.1 µM (inactive)
GI50 (Malme-3M): 5.65 µM (inactive)
GI50 (NCI-H23): 32.4 µM (inactive)
GI50 (SF-295): 4.2 µM (inactive)
GI50 (OVCAR-4): 31.6 µM (inactive)
GI50 (SR): 14.1 µM (inactive)
GI50 (SN12C): 13.6 µM (inactive)
GI50 (SK-MEL-28): > 100 µM (inactive)
GI50 (A498): 27.6 µM (inactive)
GI50 (MOLT-4): 8.47 µM (inactive)
GI50 (HT-29): 5.14 µM (inactive)
GI50 (NCI-H460): 5.52 µM (inactive)
GI50 (HOP-18): 96.6 µM (inactive)
GI50 (A549): 8.04 µM (inactive)
GI50 (SK-MEL-5): 3.54 µM (inactive)
GI50 (DLD-1): 5.25 µM (inactive)
GI50 (KM12): 6.04 µM (inactive)
GI50 (HOP-62): 12.8 µM (inactive)
GI50 (SNB-78): 50.4 µM (inactive)
GI50 (CAKI-1): 9.82 µM (inactive)
GI50 (DMS-114): 30.3 µM (inactive)
GI50 (HL-60): 3.13 µM (inactive)
GI50 (M14): 5.04 µM (inactive)
GI50 (OVCAR-5): > 100 µM (inactive)
GI50 (LXFL 529): 8.28 µM (inactive)
GI50 (786-0): 8.73 µM (inactive)
GI50 (NCI-H226): 37.4 µM (inactive)
GI50 (SK-OV-3): 12 µM (inactive)
GI50 (U-251): 15.5 µM (inactive)
GI50 (RXF 393): 25.2 µM (inactive)
GI50 (HCT-15): 4.33 µM
GI50 (TK-10): > 100 µM (inactive)
GI50 (RXF 631): 44.7 µM (inactive)
GI50 (HCC 2998): 22.1 µM (inactive)

O=C1CCC(NC(=O)Cc2ccc(O)cc2)C(=O)N1 (centres undefined)
GI50 (SW-620): > 2500 µM (inactive)
GI50 (SNB-75): 589 µM (inactive)
GI50 (XF498): > 2500 µM (inactive)
GI50 (UACC-257): > 2500 µM (inactive)
GI50 (NCI-H522): > 2500 µM (inactive)
GI50 (HCT-116): > 2500 µM (inactive)
GI50 (SNB-19): > 2500 µM (inactive)
GI50 (KM-20L2): > 2500 µM (inactive)
GI50 (ACHN): > 2500 µM (inactive)
GI50 (LOX IMVI): > 2500 µM (inactive)
GI50 (SF-268): > 2500 µM (inactive)
GI50 (COLO 205): > 2500 µM (inactive)
GI50 (M19-MEL): > 2500 µM (inactive)
GI50 (HOP-92): > 2500 µM (inactive)
GI50 (NCI-H23): > 2500 µM (inactive)
GI50 (SF-295): > 2500 µM (inactive)
GI50 (UO-31): > 2500 µM (inactive)
GI50 (OVCAR-4): > 2500 µM (inactive)
GI50 (SN12C): > 2500 µM (inactive)
GI50 (SK-MEL-28): > 2500 µM (inactive)
GI50 (A498): > 2500 µM (inactive)
GI50 (IGROV-1): > 2500 µM (inactive)
GI50 (HT-29): > 2500 µM (inactive)
GI50 (NCI-H460): > 2500 µM (inactive)
GI50 (HOP-18): > 2500 µM (inactive)
GI50 (A549): > 2500 µM (inactive)
GI50 (SK-MEL-5): > 2500 µM (inactive)
GI50 (DMS-273): > 2500 µM (inactive)
GI50 (EKVX): > 2500 µM (inactive)
GI50 (KM12): > 2500 µM (inactive)
GI50 (SNB-78): > 2500 µM (inactive)
GI50 (CAKI-1): > 2500 µM (inactive)
GI50 (DMS-114): > 2500 µM (inactive)
GI50 (M14): > 2500 µM (inactive)
GI50 (UACC-62): > 2500 µM (inactive)
GI50 (OVCAR-5): > 2500 µM (inactive)
GI50 (LXFL 529): > 2500 µM (inactive)
GI50 (OVCAR-8): > 2500 µM (inactive)
GI50 (NCI-H226): > 2500 µM (inactive)
GI50 (OVCAR-3): > 2500 µM (inactive)
GI50 (SK-OV-3): 1020 µM (inactive)
GI50 (U-251): > 2500 µM (inactive)
GI50 (HCT-15): > 2500 µM
GI50 (TK-10): > 2500 µM (inactive)
GI50 (RXF 631): > 2500 µM (inactive)
